# From patent US7357914B2, “Use of metal chelates in human or animal feeding” (Agristudio S.R.L., priority 2002, dated 2008)
# Values joined by “and” are separate entries in the source; they are usually repeats but may differ in a detail not shown here. Equal values may be shown once.
# Legend:
# [1] = water solubility of the isolated iron (II) chelate; type: physicochemical; conditions: pale yellow powder
# Description: After filtration and washing the chelated product is then dried so as to reduce the amount of absorbed water.
# [2] = feeding test in female Charolaise calves, zinc source in diet (zootechnical performance); type: in vivo
# Method: Living weight at test beginning and end, dead weight and slaughtering yield were determined for each animal.
# [3] = feeding test in weaned pigs, zinc source in food (growth, zinc retention, tissue minerals); type: in vivo; conditions: for Daily increase / Final living weight: about 27 days; for Final net weight: body weight without content of the digestive tube; for Diet: food intake, 50 ppm zinc from the source; for Daily net increase: net weight
# Method: Two test groups of pigs (Control and Test) of 35 days of age and weaned at 19 days, were administered a food differing only in the zinc source. […] The two groups of animals were balanced by nest, living weight and sex and were fed for 27 days. Other 4 animals were immediately sacrificed and a sampling was made of them according to the following procedure. The two groups of animals were weighed before starting the test and after 27 days. At the end of the test the pigs were sacrificed and stomach, intestine, left kidney and liver were removed from every pig. Stomach and intestine were emptied and weighed again so as to obtain the net weight of said organs. A sample of kidney, liver and brain was taken and frozen. Stomach, intestine, left kidney and liver were then put together with the remaining carcass and homogenized with a mixer. A sample was then taken from the mass thus obtained and frozen. The samples were then dehydrated with a dehydrating device and underwent chemical analysis. The level of zinc, copper and iron were determined on the lyophilized samples by atomic absorption spectroscopy. The body levels of zinc were referred to the product. On the basis of the body's “net” weight (i.e. without the content of the digestive tube) and of its content of zinc at test beginning and end it was possible to determine also daily zinc retention.
# [4] = single calves 1-6 of each group, Table 5, listed as TEST
# [5] = pigs, 50 ppm zinc from the source in food
# [6] = pigs, lyophilized samples, atomic absorption
smiles,measurement,setting,value
CSCCC(O)C(=O)[O-].CSCCC(O)C(=O)[O-].O.O.[Fe+2] (centres unmarked) [(CH3SCH2CH2CH(OH)COO)2Fe.2H2O],water solubility,[1],little water soluble
"CSCCC(O)C(=O)[O-].CSCCC(O)C(=O)[O-].O.O.[Zn+2] (centres unmarked) [zinc chelate, (CH3SCH2CH2CH(OH)COO)2Zn.2H2O]",Final weight,"[2]; calves, 90 days, 700 mg zinc daily, group value, Table 4, in kg",652.
same,carcass weight,"[2]; calves, 90 days, P<0.01",377 kg
same,Daily increase,"[2]; calves, 90 days, group value, Table 4","1,039."
same,carcass weight,"[2]; calves, 90 days, group value, Table 4, in kg",377.
same,Final weight,"[2]; calves, 90 days, p<0.05",652 kg
same,daily weight increase,"[2]; calves, 90 days, p<0.05","1,039 g"
same,yield,"[2]; calves, slaughtering yield, p<0.01",57.83%
same,Dead weight,[2]; [4],421 kg and 457 kg and 398 kg and 378 kg and 320 kg and 318 kg
same,Final weight,[2]; [4],724.61 kg and 789.29 kg and 686.21 kg and 653.98 kg and 557.49 kg and 548.28 kg
same,Total increase,[2]; [4],99.0 kg and 112.5 kg and 103.5 kg and 90.00 kg and 81.00 kg and 80.10 kg
same,Brain Copper content,"[3]; pig, in vivo",28.1
same,Brain Iron content,"[3]; pig, in vivo",100.9
same,Brain Zinc content,"[3]; pig, in vivo",53.9
same,Daily Zn retention,"[3]; pig, in vivo",5.40 mg
same,Kidney Copper content,"[3]; pig, in vivo",55.0
same,Kidney Iron content,"[3]; pig, in vivo",244
same,Kidney Zinc content,"[3]; pig, in vivo",97.5
same,Liver Copper content,"[3]; pig, in vivo",63.6 mg/kg
same,Liver Iron content,"[3]; pig, in vivo",240
same,Liver Zinc content,"[3]; pig, in vivo",292 mg/kg
same,Conversion index,[3]; [5],1.68
same,Daily increase,[3]; [5],327 g
same,Final living weight,[3]; [5],16.14 kg
same,Final net weight,[3]; pigs,15.57 kg
same,Diet,[3]; pigs,544 g
same,Daily net increase,[3]; pigs,314 g
"O=S(=O)([O-])[O-].[Zn+2] [zinc sulfate, reference compound]",Daily increase,[3]; [5],321 g
same,Final living weight,[3]; [5],16.20 kg
same,Final net weight,[3]; pigs,15.76 kg
same,Diet,[3]; pigs,548 g
same,Daily Zn retention,"[3]; pigs, from net body weight and body zinc content at test beginning and end",5.27 mg
same,Brain Copper content,[3]; [6],23.3
same,Brain Iron content,[3]; [6],80.6
same,Brain Zinc content,[3]; [6],47.6
same,Kidney Copper content,[3]; [6],40.2
same,Kidney Iron content,[3]; [6],179
same,Kidney Zinc content,[3]; [6],82.3
same,Liver Copper content,[3]; [6],62.5 mg/kg
same,Liver Zinc content,[3]; [6],300 mg/kg
same,Daily net increase,[3]; pigs,313 g
